The values below come from patent US20250333418A1, “PURINE COMPOUNDS, COMPOSITIONS COMPRISING THEM AND USES THEREOF” (Novo Nordisk A/S, priority 2022, published 2025).

The target in assay [1] is T1, human CB1 receptor (Homo sapiens, UniProt P21554).
T1 construct: expressed in transfected cells; host or cells: HEK293
Nature of the assay: bioSensAll GAPL-Gi2 BRET biosensor assay in HEK293 cells transfected with hCB1; test compound added before EC75-80 of agonist CP55,940 (0.1 nM). The note with it: vs CP55,940 0.1 nM (EC75-80), read-out: CB1 wt Gi2 IC50. The class given is cell-based. On the procedure:
(§1) Using polyethylenimine (PEI) transfection agent, HEK293 cells were transfected in suspension with the human CB1 receptor and one of the following bioSensAll® assays: GAPL-Gi2, or β-arrestin plasma membrane (PM) translocation biosensor (+GRK2). Cells were directly seeded in 96-well plates immediately following transfection.
(§2) Cells were incubated with coelenterazine (luciferase substrate) and different test compounds prior to the measurement of BRET signals.
(§3) Used in this project are i) Gα plasma membrane (GAPL) biosensors and the ii) β-arrestin plasma membrane translocation biosensor.
i) GAPL sensors are used to monitor the activation of heterotrimeric G proteins at the plasma membrane upon receptor stimulation. Specifically, these multimolecular BRET sensors detect the plasma membrane recruitment of proteins that interact with active Gα subunits in a G protein family-selective manner. G protein activation following receptor stimulation generally leads to an increase in the BRET signal.
(§4) HEK293 cells were maintained in Dulbecco's Modified Eagle Medium (DMEM) (Wisent; cat #319-030-CL: without sodium pyruvate, with 4.5 g/L glucose, without L-glutamine) supplemented with 1% penicillin-streptomycin (Wisent; cat #450-201-EL) and 2 or 10% fetal bovine serum (Wisent cat #090150).
(§5) HEK293 cells were co-transfected with hCB1 and one of the above-listed bioSensAll® assays. For each transfection condition: • the total amount of transfected DNA was kept constant at 1 μg per mL of cell culture to be transfected; whenever necessary, salmon sperm DNA (Invitrogen, cat #15632011) was used as ‘carrier’ DNA to supplement plasmid DNA (i.e., biosensor and receptor); • the PEI (polyethylenimine 25 kDa linear, PolyScience, cat #23966) to DNA ratio (ug:ug) was fixed at 3:1.
(§6) Transfections were carried out as follows: • DNA and PEI were first diluted separately in 150 mM NaCl. The volume of the diluent in each tube corresponds to 5% of the cell culture volume to be transfected. • Once DNA and PEI were diluted, the PEI-containing solution was added to the DNA solution and the DNA/PEI mixture immediately vortexed for 5 seconds. • The DNA/PEI mixture was incubated for at least 20 minutes at room temperature to allow for the formation of DNA/PEI complexes. • During the incubation, HEK293 cells were detached, counted and re-suspended in culture medium (composition specified above). • At the end of the incubation period, the DNA/PEI mixture was added to the cells. • Cells were finally distributed in 96-well plates (White Opaque 96-well/Microplates, Greiner, cat #655083 or CulturPlate-96, White Opaque 96-well Microplate, PerkinElmer, cat #6005688) at a density of 30,000 cells per well.
(§7) At 48 hours post-transfection: • Using 450-Select TS Biotek plate washer, culture medium was aspirated and replaced with 100 μL of Hank's Balanced Salt Solution buffer (HBSS) (Wisent, cat #319-067CL: without red phenol; with sodium bicarbonate, with calcium and magnesium, with HEPES) per well. • Plates were then incubated (equilibrated) at 37° C., 5% CO2 for 60 minutes. • Increasing doses of test compounds were then added to each well using the HP D300e digital dispenser (Tecan). All compounds were assayed at the following 12 concentrations (in nM) with each biosensor: 0.000, 0.013, 0.040, 0.120, 0.320, 0.960, 2.80, 8.00, 24.0, 70.0, 205 and 600. • Three to 5 minutes later, an assay-specific effective concentration (EC)75-80 of agonist CP55,940 (i.e., 0.1 nM and 100 nM for G[…]i2-GAPL or […]Arrestin2 (+GRK2) assay, respectively) was added to wells previously injected with test compound (i.e., previous step 3). […]
A general note: In BRET a luciferase serves as donor, and the signal depends on an acceptor being close.

For assay [2], the target named is T1, human CB1 receptor. Briefly: bioSensAll β-arrestin2 plasma membrane translocation (+GRK2) BRET biosensor assay in HEK293 cells transfected with hCB1; test compound added before EC75-80 of agonist CP55,940 (100 nM). The class given is cell-based. The note with it: βArrestin2 (+GRK2) BRET biosensor, vs CP55,940 100 nM (EC75-80), read-out: CB1 wt βarr2 IC50. On the procedure:
as §1, §2, §3
ii) The multimolecular β-arrestin membrane recruitment biosensors allow for real-time spatio-temporal monitoring of β-arrestin 1 and β-arrestin 2 following GPCR activation. Specifically, these β-arrestin sensors were designed to detect the recruitment of proteins to the plasma membrane (β-arrestin PM) with localization to compartment resulting in an increased BRET signal.
as §4, §5, §6, §7

The IC50 is the concentration that inhibits the measured activity by half.

T1 sequence (P21554 whole entry): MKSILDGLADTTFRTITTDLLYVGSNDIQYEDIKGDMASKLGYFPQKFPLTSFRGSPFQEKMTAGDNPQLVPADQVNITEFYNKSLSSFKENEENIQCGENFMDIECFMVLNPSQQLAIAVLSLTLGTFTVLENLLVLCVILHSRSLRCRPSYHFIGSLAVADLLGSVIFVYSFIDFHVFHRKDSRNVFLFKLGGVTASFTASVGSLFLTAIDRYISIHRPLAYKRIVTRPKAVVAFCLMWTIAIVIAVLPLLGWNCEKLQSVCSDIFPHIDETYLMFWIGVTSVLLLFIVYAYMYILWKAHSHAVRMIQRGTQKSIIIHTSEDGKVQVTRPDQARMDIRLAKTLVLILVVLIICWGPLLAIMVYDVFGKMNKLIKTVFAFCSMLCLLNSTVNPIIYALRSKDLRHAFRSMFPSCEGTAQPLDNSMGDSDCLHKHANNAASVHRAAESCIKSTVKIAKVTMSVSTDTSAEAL

`FC(F)(F)C1CCN(c2nc(N3C[C@H]4CCC[C@H]4C3)nc3c2nc(-c2ccccc2Cl)n3-c2ccc(Cl)cc2)CC1` [Compound 30, 2-[(3aS,6aR)-3,3a,4,5,6,6a-hexahydro-1H-cyclopenta[c]pyrrol-2-yl]-8-(2-chlorophenyl)-9-(4-chlorophenyl)-6-[4-(trifluoromethyl)-1-piperidyl]purine]: the IC50 on human CB1 receptor [1] amounted to 14.4 nM; on human CB1 receptor [2] it was 60 nM.
On the same counts, the results for `FC(F)(F)C1CCN(c2nc(N3C[C@H]4C[C@H]4C3)nc3c2nc(-c2ccccc2Cl)n3-c2ccc(Cl)cc2)CC1` [Compound 31, 2-[(1R,5S)-3-azabicyclo[3.1.0]hexan-3-yl]-8-(2-chlorophenyl)-9-(4-chlorophenyl)-6-[4-(trifluoromethyl)-1-piperidyl]purine] are 2.76 nM and 21.8 nM.
Consider `O=S1(=O)CCN(c2nc(N3CCC(C(F)(F)F)CC3)c3nc(-c4ccccc4Cl)n(-c4ccc(Cl)cc4)c3n2)CC1` [Compound 32, 4-[8-(2-chlorophenyl)-9-(4-chlorophenyl)-6-[4-(trifluoromethyl)-1-piperidyl]purin-2-yl]-1,4-thiazinane 1,1-dioxide], for which the IC50 on human CB1 receptor [1] came out at 0.509 nM; at human CB1 receptor [2], 3.02 nM.
`FC(F)(F)C1CCN(c2nc(OC3CCCOC3)nc3c2nc(-c2ccccc2Cl)n3-c2ccc(Cl)cc2)CC1` (stereo not shown) [Compound 33, 8-(2-chlorophenyl)-9-(4-chlorophenyl)-2-tetrahydropyran-3-yloxy-6-[4-(trifluoromethyl)-1-piperidyl]purine]: the IC50 at human CB1 receptor [1] is 1.42 nM; at human CB1 receptor [2] it was 4.98 nM.
On the same counts, the results for `CC(=O)NC(=N)Nc1nc(N2CCC(C(F)(F)F)CC2)c2nc(-c3ccccc3Cl)n(-c3ccc(Cl)cc3)c2n1` [Compound 34, N—[N-[8-(2-chlorophenyl)-9-(4-chlorophenyl)-6-[4-(trifluoromethyl)-1-piperidyl]purin-2-yl]carbamimidoyl]acetamide] are 6.62 nM and 17.6 nM.
With `OC[C@@H]1CCCN1c1nc(N2CCC(C(F)(F)F)CC2)c2nc(-c3ccccc3Cl)n(-c3ccc(Cl)cc3)c2n1` [Compound 35, [(2S)-1-[8-(2-chlorophenyl)-9-(4-chlorophenyl)-6-[4-(trifluoromethyl)-1-piperidyl]purin-2-yl]pyrrolidin-2-yl]methanol], the IC50 was found to be 0.687 nM at human CB1 receptor [1] and 3.3 nM at human CB1 receptor [2].
For `CC1(C(N)=O)CCN(c2nc(N3CCC[C@H]3CO)nc3c2nc(-c2ccc(C#N)cc2)n3-c2ccc(Cl)cc2)CC1` [Compound 36, 1-[9-(4-chlorophenyl)-8-(4-cyanophenyl)-2-[(2S)-2-(hydroxymethyl)pyrrolidin-1-yl]purin-6-yl]-4-methyl-piperidine-4-carboxamide], in that order: 0.686 nM and 1.52 nM.
As to `CC1(C(N)=O)CCN(c2nc(N3CCC[C@H]3CO)nc3c2nc(-c2cccc(C#N)c2)n3-c2ccc(Cl)cc2)CC1` [Compound 37, 1-[9-(4-chlorophenyl)-8-(3-cyanophenyl)-2-[(2S)-2-(hydroxymethyl)pyrrolidin-1-yl]purin-6-yl]-4-methyl-piperidine-4-carboxamide], the figures for the half-maximal inhibitory concentration (IC50) on human CB1 receptor [1] and on human CB1 receptor [2] were 7.39 nM and 60.5 nM, respectively.
`CN(CC(C)(C)O)c1nc(N2CCC(C(F)(F)F)CC2)c2nc(-c3ccccc3Cl)n(-c3ccc(Cl)cc3)c2n1` [Compound 38, 1-[[8-(2-chlorophenyl)-9-(4-chlorophenyl)-6-[4-(trifluoromethyl)-1-piperidyl]purin-2-yl]-methyl-amino]-2-methyl-propan-2-ol]: the IC50 on human CB1 receptor [1] was determined as 1.67 nM; on human CB1 receptor [2] it was 6.48 nM.
On the same counts, the results for `FC(F)(F)C1CCN(c2nc(-c3cc[nH]n3)nc3c2nc(-c2ccccc2Cl)n3-c2ccc(Cl)cc2)CC1` [Compound 39] are 3.29 nM and 16.4 nM.
On the same counts, the results for `CN(CC(C)(C)O)c1nc(N2CCC(C)(C(N)=O)CC2)c2nc(-c3ccccc3Cl)n(-c3ccc(Cl)cc3)c2n1` [Compound 40, 1-[8-(2-chlorophenyl)-9-(4-chlorophenyl)-2-[(2-hydroxy-2-methyl-propyl)-methyl-amino]purin-6-yl]-4-methyl-piperidine-4-carboxamide] are 0.971 nM and 15.3 nM.
For `CN(CC1(O)CC1)c1nc(N2CCC(C)(C(N)=O)CC2)c2nc(-c3ccccc3Cl)n(-c3ccc(Cl)cc3)c2n1` [Compound 41, 1-[8-(2-chlorophenyl)-9-(4-chlorophenyl)-2-[(1-hydroxycyclopropyl)methyl-methyl-amino]purin-6-yl]-4-methyl-piperidine-4-carboxamide], in that order: 1.65 nM and 7.33 nM.
Turning to `COCCN(C)c1nc(N2CCC(C)(C(N)=O)CC2)c2nc(-c3ccccc3Cl)n(-c3ccc(Cl)cc3)c2n1` [Compound 42, 1-[8-(2-chlorophenyl)-9-(4-chlorophenyl)-2-[2-methoxyethyl(methyl)amino]purin-6-yl]-4-methyl-piperidine-4-carboxamide], the concentration for half-maximal inhibition (IC50) on human CB1 receptor [1] stood at 0.695 nM; on human CB1 receptor [2], 2.39 nM.
On the same counts, the results for `CC1(C(N)=O)CCN(c2nc(-n3ccnc3CO)nc3c2nc(-c2ccccc2Cl)n3-c2ccc(Cl)cc2)CC1` [Compound 43, 1-[8-(2-chlorophenyl)-9-(4-chlorophenyl)-2-[2-(hydroxymethyl)imidazol-1-yl]purin-6-yl]-4-methyl-piperidine-4-carboxamide] are 1.37 nM and 5.27 nM.
For `CC1(C(N)=O)CCN(c2nc(-c3cc[nH]n3)nc3c2nc(-c2ccccc2Cl)n3-c2ccc(Cl)cc2)CC1` [Compound 44], in that order: 2.1 nM and 10 nM.
Turning to `CC1(C(N)=O)CCN(c2nc(-c3cnc[nH]3)nc3c2nc(-c2ccccc2Cl)n3-c2ccc(Cl)cc2)CC1` [Compound 45], the values for the 50% inhibitory concentration (IC50) at human CB1 receptor [1] and at human CB1 receptor [2] were 5.85 nM and 39.9 nM, respectively.
For `CC1(C(N)=O)CCN(c2nc(-n3cnc(CO)c3)nc3c2nc(-c2ccccc2Cl)n3-c2ccc(Cl)cc2)CC1` [Compound 46, 1-[8-(2-chlorophenyl)-9-(4-chlorophenyl)-2-[4-(hydroxymethyl)imidazol-1-yl]purin-6-yl]-4-methyl-piperidine-4-carboxamide], in that order: 1.82 nM and 9.64 nM.
On to `CC1(C(N)=O)CCN(c2nc(-n3cnc(CCO)c3)nc3c2nc(-c2ccccc2Cl)n3-c2ccc(Cl)cc2)CC1` [Compound 47, 1-[8-(2-chlorophenyl)-9-(4-chlorophenyl)-2-[4-(2-hydroxyethyl)imidazol-1-yl]purin-6-yl]-4-methyl-piperidine-4-carboxamide], for which the half-inhibitory concentration (IC50) came to 1.87 nM on human CB1 receptor [1] and 6.65 nM at human CB1 receptor [2].
On the same counts, the results for `CN(CCO)c1nc(N2CCC(C)(C(N)=O)CC2)c2nc(-c3ccccc3)n(-c3ccc(Cl)cc3)c2n1` [Compound 48, 1-[9-(4-chlorophenyl)-2-[2-hydroxyethyl(methyl)amino]-8-phenyl-purin-6-yl]-4-methyl-piperidine-4-carboxamide] are 1.2 nM and 5.91 nM.
On the same counts, the results for `CN(CCO)c1nc(N2CCC(C)(C(N)=O)CC2)c2nc(-c3ncccc3Cl)n(-c3ccc(Cl)cc3)c2n1` [Compound 49, 1-[9-(4-chlorophenyl)-8-(3-chloro-2-pyridyl)-2-[2-hydroxyethyl(methyl)amino]purin-6-yl]-4-methyl-piperidine-4-carboxamide] are 2.6 nM and 19.3 nM.
